Consider 1 compound from patent US20250034186A1, “ANTIVIRAL COMPOUNDS” (priority 2020, published 2025).

SMILES strings stand for the structures.

One test relates to HRVc25 replicon. Nature of the test: HRVc25 HeLa replicon EC50. It is filed as cell-based. The note with it: Human rhinovirus sp., HRV25, H1-HeLa, 48 h, read-out: HRV25 Rep EC50. As to the method:
First, HRV replicon RNA is prepared. 5 μg of DNA Template (HRVc15 or HRVc25) is linearized with 2 μL of MluI enzyme in NEB buffer-3 in a final volume of 25 μL for 3 hours at 37° C. Following incubation, linearized DNA is purified on a PCR purification column and the following in vitro transcription is performed using the following conditions: 10 μL of RiboMAX Express T7 2× buffer, 1-8 μL of linear DNA template (1 μg), 0-7 μL nuclease free water, 2 μL enzyme mix T7 express. The final volume of 20 μL is mixed and incubated at 37° C. for 30 min. Following incubation, 1 μL of RQ1 RNase free DNase is added and the mixture is incubated at 37° C. for 15 min. The resulting RNA is then purified with the MegaClear Kit (Gibco Life Technologies Cat #11835-030) and is eluted two times with 50 μL of elution buffer at 95° C. […] Replicon activity is then measured by a Renilla-Glo Luciferase Assay system. Prior to signal quantification, plates are removed from incubators and are allowed to equilibrate to 25° C. after 50 uL is removed from each well. […] Plates are then incubated for 20 min at 25° C. under gentle agitation and luciferase signal are determined with a 0.1 second detection setting using an EnVision luciferase quantification reader.
Background: A replicon is a self-replicating genome or part of one, used to study replication in cells.

The test system of test [1] is Dengue 2, New Guinea strain (NGC). Description: DENV-2 moDC EC50. In kind it is cell-based. The following applies: Dengue virus, Dendritic cell; human monocyte-derived dendritic cells, 48 hours, qPCR. On the procedure:
Human monocyte-derived dendritic cells (moDCs) were derived from CD14+ monocytes (AllCells) cultured in Human Mo-DC Differentiation medium containing GM-CSF and IL-4 (Miltenyi Biotec). On day 7, moDCs were harvested by mechanical disruption, washed and suspended in serum-free RPMI. moDCs were infected with Vero-derived Dengue 2, New Guinea strain (NGC) at a MOI=0.1 for two hours in serum-free RPMI with gentle agitation at 37° C. Cells were washed and resuspended in 10% serum-containing RPMI (Gibco, supplemented with sodium pyruvate, NEAA, Penicillin-Streptomycin). 10^5 cells were plated in triplicate in 96-well plates with compounds dispensed at graded doses (Hewlett-Packard D300 Digital Dispenser). All wells were normalized to 0.25% DMSO. At 48 hours, cells were washed with 1×PBS and all supernatants removed. Total RNA was extracted using RNEasy 96 plates (Qiagen) and used to generate first-strand cDNA using XLT cDNA 5× Supermix (QuantaBio). cDNA was used as a template in a Taqman qPCR duplex reaction specific to DENV2 viral and GAPDH gene expression. EC50 values were determined using Prism Graphpad software, with normalization to a positive control and no compound negative control wells.
(Real-time PCR tracks product formation cycle by cycle.)

Take `C[C@H](N[P@](=O)(OC[C@@]1(C#N)O[C@@H](c2ccc3c(N)ncnn23)[C@H](O)[C@@H]1O)Oc1ccccc1)C(=O)OC1CCCCC1` [Formula I, cyclohexyl ((S)-(((2R,3S,4R,5S)-5-(4-aminopyrrolo[2,1-f][1,2,4]triazin-7-yl)-2-cyano-3,4-dihydroxytetrahydrofuran-2-yl)methoxy)(phenoxy)phosphoryl)-L-alaninate]: the EC50 in the test on HRVc25 replicon is 7 nM; in test [1] it was above 6190 nM.

By EC50 is commonly meant the concentration at which the effect is half-maximal.
